Experimental data: patent US20190169218A1, “AMPHIPATHIC COMPOUND HAVING NOVEL PENTA-SACCHARIDE HYDROPHILIC GROUP AND USE THEREOF” (Industry-University Cooperation Foundation Hanyang …, priority 2016, published 2019)

Assays:
[1] = molecular target: T1, human β2 adrenergic receptor (β2AR) (Homo sapiens, UniProt P07550); experiment: β2AR activity by [3H]-dihydroalprenolol radioactive ligand binding assay; format: biochemical; conditions: for long-term β2AR activity ([3H]-DHA binding): 3 or 5 days at room temperature
T1 construct: Flag; made in house
T1 sequence (P07550 whole entry): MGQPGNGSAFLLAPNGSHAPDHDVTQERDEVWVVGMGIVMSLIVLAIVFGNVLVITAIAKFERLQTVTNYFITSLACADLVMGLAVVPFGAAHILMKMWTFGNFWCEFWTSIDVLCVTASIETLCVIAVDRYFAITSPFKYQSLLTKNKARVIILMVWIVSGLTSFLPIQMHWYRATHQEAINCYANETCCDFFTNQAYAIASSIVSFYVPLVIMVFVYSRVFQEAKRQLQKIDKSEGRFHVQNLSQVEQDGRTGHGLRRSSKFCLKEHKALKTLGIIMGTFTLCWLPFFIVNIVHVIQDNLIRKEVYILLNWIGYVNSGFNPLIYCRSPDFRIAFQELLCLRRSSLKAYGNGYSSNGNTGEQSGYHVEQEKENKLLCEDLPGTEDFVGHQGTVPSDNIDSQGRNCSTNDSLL
Protocol: The membrane protein stabilizing ability of receptors (mBBr-β2ARs) solubilized in PSAs or PSEs was evaluated by measuring the binding activity of the receptors to [^3H]-dihydroalprenolol ([^3H]-DHA).
Specifically, radioactive ligand binding assay was performed as follows. β2ARs purified with 0.1 wt % DDM was concentrated to about 10 mg/mL (approximately 200 μM). β2ARs purified with DDM were used to prepare a master binding mixture containing 10 nM [^3H]-dihydroalprenolol (DHA), which was dissolved in 0.2 wt % of DDM, PSA or PSE and supplemented with 0.5 mg/mL BSA. At a concentration of 0.2 pmol, the activity of the receptors purified with the amphipathic compounds was monitored at regular intervals over a 4-day incubation period. Protein samples were incubated on ice for 2 days and then at room temperature for 2 days. Receptor activity was measured by binding assay for dissolved radioactive ligands. The receptors purified with DDM or a novel formulation (PSA-C11, PSE-C11 or PSE-C13) were incubated with 10 nM [^3H]-DHA at room temperature for 30 minutes. The mixture was loaded onto a G-50 column, a solution passed through the column was collected in 1 mL of a binding buffer (100 mM NaCl and 20 mM HEPES (pH 7.5) supplemented with 0.5 mg/mL BSA and 20×CMC amphipathic compounds), and 15 mL of a scintillation fluid was added to the solution. Receptor-bound [^3H]-DHA was measured using a scintillation counter (Beckman). Non-specific binding of [^3H]-DHA was measured by adding 1 μM alprenolol (Sigma) to the same reaction mixture. The binding degree of the receptors to [^3H]-DHA was represented by a column graph.
The ability of TPSs (TPS-As, TPS-Es and TPS-ELs) to stabilize the structures of human β2 adrenergic receptors (β2ARs) and G protein-coupled receptors (GPCRs) was measured. That is, DDM-purified receptors were diluted with a buffer solution containing only each of the TPSs without cholesteryl hemisuccinate (CHS) or a buffer solution containing CHS and DDM. The final concentration of the compounds was CMC+0.2wt %, and the binding activity of the receptors to ligands was evaluated by measuring the degree of binding of the receptors to [^3H]-dihydroalprenolol ([^3H]-DHA).
Specifically, radioactive ligand binding assay was performed as follows. β2ARs were purified with 0.1 wt % DDM (D. M. Rosenbaum et al., Science, 2007, 318, 1266-1273.) and was concentrated to about 10 mg/mL (approximately 200 μM). β2ARs purified with DDM were used to prepare a master binding mixture containing 10 nM [^3H]-dihydroalprenolol (DHA), which was dissolved in 0.2% amphipathic compounds (DDM or TPSs) and supplemented with 0.5 mg/mL BSA. The activity of the receptors purified with the amphipathic compounds was monitored at regular intervals over a 3- to 5-day incubation period. The receptors purified with DDM or TPSs were incubated with 10 nM [^3H]-DHA at room temperature for 30 minutes. The mixture was loaded onto a G-50 column, a solution passed through the column was collected in 1 mL of a binding buffer (100 mM NaCl and 20 mM HEPES (pH 7.5) supplemented with 0.5 mg/mL BSA and 20×CMC of each amphipathic compound), and 15 mL of a scintillation fluid was added to the solution. Receptor-bound [^3H]-DHA was measured using a scintillation counter (Beckman). The binding degree of the receptors to [^3H]-DHA was represented by a column graph.

[2] = critical micelle concentration (CMC) by hydrophobic fluorescent staining with diphenylhexatriene (DPH); format: physicochemical
Text: Methods of measuring CMC are not particularly limited, and methods widely known in the art may be used. For example, a fluorescence staining method using diphenylhexatriene (DPH) may be used.
To characterize PSAs of Preparation Examples 1 to 3 synthesized according to the synthetic method of Example 1; PSEs of Preparation Examples 4 to 7 synthesized according to the synthetic method of Example 2; TPS-Es and TPS-ELs of Preparation Examples 8 to 14 synthesized according to the synthetic method of Example 3; and TPS-As of Preparation Examples 15 to 17 synthesized according to the synthetic method of Example 4, the critical micellar concentrations (CMCs) of PSAs, PSEs and TPSs and the hydrodynamic radii (Rh) of formed micelles were measured.
(§1) Specifically, critical micellar concentrations (CMCs) were measured using hydrophobic fluorescent staining and diphenylhexatriene (DPH), and the hydrodynamic radii (Rh) of micelles formed by each compound at a concentration of 1.0 wt % were measured using dynamic light scattering (DLS). The results were compared with results obtained from an existing amphipathic molecule (detergent), DDM, and are shown in Table 1.

[3] = hydrodynamic radius of micelles by dynamic light scattering (DLS); format: physicochemical; conditions: compound at 1.0 wt %
Protocol: Methods of measuring the radius of micelles are not particularly limited, and methods widely known in the art may be used. For example, dynamic light scattering (DLS) may be used.
as §1
When measuring, each of PSAs, PSEs and TPSs was used at a concentration of 1.0 wt %.

[4] = system: T4L-β2AR-Gs or β2AR-Gs complexes; experiment: purification and stability of T4L-β2AR-Gs or β2AR-Gs complexes (analytical gel filtration, negative staining EM); set-up: species or system human; conditions: after incubation for 15 and 17 days
Protocol: The ability of PSE-C11 or TPS-E10L to purify and stabilize T4L-β2AR-Gs or β2AR-Gs complexes was measured using electron microscopy (EM) analysis.
Specifically, measurement of the ability of PSE-C11 for TPS-E10L to purify and stabilize T4L-β2AR-Gs or β2AR-Gs complexes was performed as follows. 100 μM T4L-β2AR solubilized in 0.1 wt % DDM was mixed with 120 μM Gs heterotrimers for 30 minutes. 0.5 units of apyrase (NEB) and 2 mM MgCl2 were added to the mixture, followed by a 1-hour incubation to form complexes. 1 wt % PSE-C11 or TPS-E10L was respectively added to the mixture to achieve a final concentration of 0.8%, and incubated for 30 minutes to allow DDM to be exchanged with PSE-C11 or TPS-E10L. […] Finally, proteins were eluted with a 0.05% (100×CMC) PSE-C11 or TPS-E10L buffer. Gel filtration was performed using a running buffer (20 mM HEPES (pH 7.5), 100 mM NaCl, 0.005% PSE-C11 or TPS-E10L, 1 μM BI, 100 μM TCEP) to purify T4L-β2AR-Gs complexes. To measure the stability of β2AR-Gs complexes present in PSE-C11 or TPS-E10L, analytical gel filtration was performed with running buffers of the same formulation at 12 hours, 1 day, 3 days, 7 days, and 15 days. After a 15 day-incubation, analytical gel filtration was performed using an amphiphilic compound pre-buffer having the same formulation as above without PSE-C11 or TPS-E10L.
In addition, negative staining EM analysis for T4L-β2AR-Gs or β2AR-Gs complexes present in PSE-C11 was performed as follows. Samples containing T4L-β2AR-Gs or β2AR-Gs were prepared to perform electron microscopy analysis using a conventional negative staining protocol (see Peisley, A. et al., G Protein-Coupled Receptors in Drug Discovery: Methods and Protocols, Methods in Molecular Biology, 1335, 29-38 (2015)), and imaging was performed by operating a Tecnai T12 electron microscope at 120 kV at room temperature. Images were recorded with a Gatan US4000 CCD camera at a 71,138×magnification with a defocus value of ˜[…].

[5] = molecular target: T2, uric acid-xanthine/H+ symporter (UapA) (Emericella nidulans, UniProt Q07307, G411V); experiment: thermal stability of UapA by CPM analysis; set-up: species or system Aspergillus nidulans; conditions: CMC+0.2 wt %, 40° C., 120 minutes
T2 construct: GFP; made in house; host or cells: Saccharomyces cerevisiae FGY217
T2 sequence (Q07307 12-574 G411V): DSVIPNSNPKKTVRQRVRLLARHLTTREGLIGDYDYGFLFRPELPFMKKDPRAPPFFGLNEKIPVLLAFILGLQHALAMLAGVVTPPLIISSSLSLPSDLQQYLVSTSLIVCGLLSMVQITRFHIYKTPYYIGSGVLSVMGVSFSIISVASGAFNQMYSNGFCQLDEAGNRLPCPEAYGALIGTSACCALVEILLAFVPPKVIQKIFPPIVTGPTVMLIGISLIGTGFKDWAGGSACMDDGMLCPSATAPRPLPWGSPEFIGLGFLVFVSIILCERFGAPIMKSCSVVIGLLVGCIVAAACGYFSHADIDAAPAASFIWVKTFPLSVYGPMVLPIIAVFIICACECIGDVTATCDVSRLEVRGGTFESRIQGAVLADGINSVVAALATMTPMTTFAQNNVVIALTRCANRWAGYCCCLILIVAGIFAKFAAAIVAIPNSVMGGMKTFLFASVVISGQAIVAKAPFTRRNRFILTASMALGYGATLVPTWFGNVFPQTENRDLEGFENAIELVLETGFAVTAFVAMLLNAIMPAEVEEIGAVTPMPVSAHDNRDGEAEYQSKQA
Protocol: The ability of TPSs (TPS-As, TPS-Es and TPS-ELs) to stabilize the structure of uric acid-xanthine/H+ symporter (UapA) isolated from Aspergillus nidulans was measured. The structural stability of UapA was evaluated using a sulfhydryl-specific fluorophore, N-[4-(7-diethylamino-4-methyl-3-coumarinyl)phenyl]maleimide (CPM).
Specifically, UapAG411V1-11 (hereinafter, referred to as ‘UapA’) was expressed in a Saccharomyces cerevisiae FGY217 strain as a GFP fusion protein, and was isolated using a sample buffer (20 mM Tris (pH 7.5), 150 mM NaCl, 0.03% DDM, 1 mM xanthine). The transporter was concentrated to about 10 mg/mL using a 100 kDa molecular weight cut-off filter (Millipore). The transporter was diluted with a CMC+0.04 wt % or CMC+0.2 wt % buffer at a ratio of 1:150 in a Greiner 96-well plate containing one of TPS-As (TPS-A6, TPS-A7 or TPS-A8), TPS-Es (TPS-E6, TPS-E7 or TPS-E8), TPS-ELs (TPS-E8L, TPS-E9L, TPS-E10L or TPS-E11L), MNG-3 or DDM (control group). […] During incubation, fluorescence emission intensity was monitored using a microplate spectrophotometer set at excitation and emission wavelengths of 387 and 463 nm, respectively. The maximum value of fluorescence intensity was used to calculate the relative percentage of folded transporters during the incubation period. […]

SMILES	long-term β2AR activity ([3H]-DHA binding) [1]	initial receptor activity maintained ([1]; after 5 days of incubation at room temperature)	CMC [2] [mM]	CMC (wt %) [2] [wt %]	Rh (nm), hydrodynamic radius of micelles [3] [nm]	stability of β2AR-Gs complexes (analytical gel filtration) [4]	maintaining folding state of UapA (CPM) [5]
CCCCCCCCCCOCC(COCCCCCCCCCC)(COCCCCCCCCCC)CO[C@@H]1OC(COCCCO[C@@H]2OC(CO)[C@@H](O)C(O)C2O)[C@@H](OCCCO[C@@H]2OC(CO)[C@@H](O)C(O)C2O)C(OCCCO[C@@H]2OC(CO)[C@@H](O)C(O)C2O)C1OCCCO[C@@H]1OC(CO)[C@@H](O)C(O)C1O (some centres unmarked) [TPS-E10L]	significantly better than that of DDM	up to 90%	~0.002	~0.0003	4.8 ± 0.34	no separation of the complexes was observed at all	
CCCCCCCCCCCOCC(COCCCCCCCCCCC)(COCCCCCCCCCCC)CO[C@@H]1OC(COCCCO[C@@H]2OC(CO)[C@@H](O)C(O)C2O)[C@@H](OCCCO[C@@H]2OC(CO)[C@@H](O)C(O)C2O)C(OCCCO[C@@H]2OC(CO)[C@@H](O)C(O)C2O)C1OCCCO[C@@H]1OC(CO)[C@@H](O)C(O)C1O (some centres unmarked) [TPS-E11L]	significantly better than that of DDM		~0.001	~0.0002	40.6 ± 4.4		the best effect
